{
  "source": "paper PMC6510487",
  "about": "(Chemosensors (Basel, Switzerland), 2018)",
  "key": {"human SIRPalpha [1]": {"system": "human SIRPalpha", "assay": "Microscale thermophoresis binding of CD47 mimetic probe to hSIRPalpha", "details": "150 μM probe, 50 μM human SIRPalpha"}, "human SIRPalpha [2]": {"system": "human SIRPalpha", "assay": "Fluorescence response of CD47 mimetic probe upon hSIRPalpha binding", "details": "150 μM probe, 50 μM human SIRPalpha"}},
  "note": "Ends that are not written are not given here.",
  "data": [
    {"sequence": "EVTELTREGE [CD47 mimetic probe]", "values": [
      {"measurement": "binding to hSIRPalpha by MST", "setting": "human SIRPalpha [1]", "value": "could bind to hSIRPalpha"},
      {"measurement": "fluorescence enhancement upon target binding to hSIRPalpha", "setting": "human SIRPalpha [2]", "value": "did not exhibit fluorescence enhancement"}
    ]}
  ]
}
